Assay results as given in US20230364205A1, “COMPOSITIONS AND METHODS FOR TREATING SERRATED COLORECTAL CANCER” (SANFORD BURNHAM PREBYS MEDICAL DISCOVERY INSTITUTE, priority 2020, published 2023).
“Also recorded” adds a separate entry of the source.

What was measured:
WT organoids = experiment: interferon response of WT small intestine organoids to 5-AZA-CdR; type: cell-based, mouse
Method: (§1) For generation of small intestine organoids, organoids were collected in ice-cold TrypLE solution (e.g., Life Technologies) to remove Matrigel, then pipetted 5 cycles and incubated 5 min at 37° C. to obtain single-cell suspension. Cells were washed twice in PBS 3% FBS and resuspended at room temperature with PBS with 100 μg/ml DNase I for 10 min before staining with anti-H-2Kb (clone AF6-88.5.5.3; eBioscience). For antigen presentation in MODE-K cells, cells were washed in PBS, trypsinized and wash with warm medium. Then, cells were resuspended and stained with anti-H-2Kk (clone 36-7-5; BioLegend) and anti-H-2Dk (clone 15-5-5; BD Pharmingen). Dead cells were excluded after 7-AAD staining. All flow cytometry experiments were performed on a BD LSRFortessa 14-colors analyzer at the Sanford Burnham Prebys Medical Discovery Institute Shared FACS Facility and flow cytometry data were analyzed using FlowJo software (Tree Star Inc.).
(§2) Intestinal epithelial cell […] isolation was performed as described previously Llado et al., Repression of Intestinal Stem Cell Function and Tumorigenesis through Direct Phosphorylation of β-catenin and Yap by PKCζ. Cell Reports (2015) 10,740-754, with some modification. […] Adenoma fragments were counted after isolation and a total of 250-500 fragments were mixed with 100 μl of growth factor reduced-Matrigel and plated in 12- or 24-well plates. […]

ZKO organoids = experiment: interferon response of ZKO (PKCζ-lacking) small intestine organoids to 5-AZA-CdR; type: cell-based, mouse
Method: as §1, §2

DKO^IEC mouse tumors = experiment: TGF-βR1-specific inhibition experiment (galunisertib) in DKO^IEC mice; type: in vivo
Method: For CD8+ T cell depletion (FIG. 4, Panels A-L), 10-week-old LKO^IEC mice were injected intraperitoneally with 200 μg of anti-CD8 antibody (clone 2.43) or control IgG twice a week for 5 weeks until they were sacrificed. For the TGF-βR1-specific inhibition experiment, 10-week-old DKO^IEC mice were treated twice a day with a dose of 10 mg of galunisertib (Tauriello et al., 2018) per os for 6 weeks until they were sacrificed. Control mice were treated with vehicle. For checkpoint immunotherapy, either 10-week-old or 13-week-old DKO^IEC mice were injected intraperitoneally with a dose of 10 mg/kg (body mass) of anti-PD-L1 antibody (clone 6E11) twice a week for 3 weeks until they were sacrificed. For the combination therapy of anti-PD-L1 antibody and TGF-βR1-specific inhibitor, 23-week-old DKO^IEC mice were treated twice a day with a dose of 10 mg of galunisertib per os and injected intraperitoneally with a dose of 10 mg/kg (body mass) of anti-PD-L1 antibody twice a week for 3 weeks until they were sacrificed. Anti-PD-L1 antibody was provided by de Sauvage FJ (Genentech).
Organs were isolated, rinsed in ice-cold PBS, fixed in 10% neutral buffered formalin overnight at 4° C., dehydrated, and embedded in paraffin. Sections (5 μm) were stained with hematoxylin and eosin (H&E). For immunohistochemistry, sections were deparaffinized, rehydrated, and then treated for antigen retrieval. After blocking in Protein Block Serum-Free solutions (DAKO), tissues were incubated with primary antibody overnight at 4° C. followed by incubation with biotinylated secondary antibody. Endogenous peroxidase was quenched in 3% H2O2 in water for 10 min at room temperature. Antibodies were visualized with avidin/biotin complex (e.g., Vectastain Elite; Vector Laboratories) using diaminobenzidine as the chromogen. For immunofluorescence, fresh frozen organs were embedded in Tissue-Tek OCT compound (e.g., Sakura) and section of 10 μm were fixed in methanol, washed with PBS and then incubated with the primary antibodies. Washed sections were incubated with Alexa-conjugated secondary antibodies (e.g., Life Technologies) and examined with a Zeiss LSM 710 NLO Confocal Microscope. In situ hybridization for murine Ereg was carried out using RNAscope Multiplex Fluorescent Assay kit (Advanced Cell Diagnostics) following manufacturer's instructions. The probe corresponding to CDS region of murine Ereg (Accession #: NM_007950.2, probe region: 116-1496; Advanced Cell Diagnostics; Cat #: 437981). Cell death was analyzed using the In-Situ Cell Death Detection kit, TMR red (Thermo) for TUNEL. Masson's Trichrome staining was carried out following manufacturer's instructions (Sigma HT15-1KT).
Flow cytometry experiments were performed using fresh small intestinal tissue and organoid preparations. For the analyses of small intestinal tissue, a half part of duodenum, jejunum, and ileum was used for quantitative flow cytometry analysis of immune cell population of lamina propria. Briefly, small intestines were rinsed in cold PBS, minced into small pieces, incubated in HBSS with EDTA (5 mM) and digested with collagenase (0.05 mg/ml) for 30 min at 37° C., followed by a discontinuous Percoll separation method (40 and 75%) to purify immune cells. The cells concentrated at the interface were collected and washed in cold PBS. Red blood cells were removed with lysing buffer (BD Pharm Lyse) and live cells were counted using Trypan blue and then saturated with mouse Fc Block (purified anti-mouse CD16/CD32; 1:50; clone 2.4G2; BD Pharmingen) 30 min at 4° C. before incubating with specific dyed antibodies.
For IL-17A intracellular staining, cells were pretreated with 50 ng/ml of phorbolmyristate acetate and 500 ng/ml of ionomycin in the presence of 10 μg/ml of brefeldin A for 3 hr at 37° C. 5% CO2. […]

[1] = tested on: serrated aPKC-DKO^IEC tumors; experiment: PVHA treatment of aPKC-DKO^IEC mice; type: in vivo, mouse
Method: Mice treatment with PVHA: For the hyaluronidase-specific inhibition experiment, 11-week-old aPKC-DKO^IEC mice were injected intravenously twice per week with a low dose of 0.0375 mg or high dose of 0.2 mg/Kg of PVHA (Halozyme) for 3 weeks until they were sacrificed. Control mice were treated with vehicle.
Histology, immunohistochemistry: Organs were isolated, rinsed in ice-cold PBS, fixed in 10% neutral buffered formalin overnight at 4° C., dehydrated, and embedded in paraffin. For Masson TriChrome staining, the sections (5 μm) were deparaffinized, rehydrated, and then stained with the Trichrome Stain (Masson) Kit (Sigma-Aldrich, #HT15) following the manufacturer's instructions. For hyaluronan staining, sections (5 μm) were deparaffinized, rehydrated, and then incubated with biotinylated hyaluronan binding protein (Millipore Sigma, #385911) overnight at 4° C., followed by incubation with streptavidin HRP conjugate (Invitrogen, #434323). Staining was developed using diaminobenzidine. For CD8 staining, sections (5 μm) were deparaffinized, rehydrated, and then treated for antigen retrieval (Citrate, pH6) with heat. After blocking in Protein Block Serum-Free solutions (DAKO), tissues were incubated with primary antibody (anti-mouse CD8 (BD, #557654) overnight at 4° C. followed by incubation with biotinylated secondary antibody. Endogenous peroxidase was quenched in 3% H2O2 in water for 10 min at room temperature. Antibodies were visualized with avidin/biotin complex (Vectastain Elite; Vector Laboratories) using diaminobenzidine as the chromogen.

[2] = 3 μM for 24 hours, then drug-free culture, qRT-PCR
[3] = 10-week-old DKO^IEC mice, 10 mg per os twice a day for 6 weeks
[4] = aPKC-DKO^IEC mice, i.v. twice per week for 3 weeks from week 11

## Nc1ncn([C@H]2C[C@H](O)[C@@H](CO)O2)c(=O)n1 [5-AZA-CdR, 5-aza-2-deoxycytidine]
WT organoids; [2]
  expression of interferon-responsive genes Irf7, Oas1a, Isg15, and Cxcl10: robustly induced
WT organoids; flow cytometry
  MHC class I long-chain H-2K^b on the surface: upregulated
ZKO organoids; [2]
  expression of interferon-responsive genes Irf7, Oas1a, Isg15, and Cxcl10: severely abrogated
ZKO organoids; flow cytometry
  MHC class I long-chain H-2K^b on the surface: but not on ZKO organoids

## Cc1cccc(-c2nn3c(c2-c2ccnc4ccc(C(N)=O)cc24)CCC3)n1 [galunisertib]
DKO^IEC mouse tumors; [3]
  incidence of invasive cancer: reduced
  progression of SSA/P to the adenocarcinoma stage: suppressed
  tumor load: did not reduce
  tumor number: did not reduce
  tumor size: did not reduce
DKO^IEC mouse tumors; CD45/PD-L1 staining
  proportion of PD-L1+/CD45+ cells infiltrating DKO^IEC tumors: not affected
DKO^IEC mouse tumors; Masson's trichrome staining of small intestinal tumors, DKO^IEC mice
  collagen deposition: inhibition
DKO^IEC mouse tumors; flow cytometry, DKO^IEC tumors
  proportion of CD8+ T cells: did not significantly change
  proportion of CD11b+ myeloid cells: did not significantly change
  proportion of Th17 cells in the tumors: reduction
  proportion of Treg cells: did not significantly change
DKO^IEC mouse tumors; qRT-PCR mRNA levels, DKO^IEC mice
  expression of TGF-β-responsive genes, such as Angptl2, Cdkn2b, Il11, and Ereg: reduced expression
DKO^IEC mouse tumors; staining of small intestinal tumors, DKO^IEC mice
  stromal phospho-SMAD2: inhibition

## Pegvorhyaluronidase alfa [PVHA]
[1]; 11-week-old aPKC-DKO^IEC mice, i.v. twice per week for 3 weeks, low and high dose
  progression of SSA/Ps to the adenocarcinoma stage: suppressed
[1]; CD8 staining of small intestinal tumors, compared to vehicle-treated samples
  number of CD8+ T cells stained in the tumor tissue (infiltration of CD8+ T cells): substantially increased; also recorded: increases
[1]; Masson trichrome staining of small intestinal tumors
  collagen deposition in the tumors: reduced
[1]; [4]
  tumor load: reduced
  tumor number: reduced
  tumor size: reduced
[1]; figure legends FIG. 17 and FIG. 18
  serrated tumors in aPKC-DKO^IEC mice: reduces
[1]; high dose of 0.2 mg/Kg, i.v. twice per week for 3 weeks from week 11
  incidence of invasive cancer: reduced
[1]; high dose of PVHA
  tumor burden: reduce tumor burden substantially
[1]; hyaluronan staining of small intestinal tumors, low dose of PVHA (0.0375 mg/kg)
  hyaluronan deposition in the tumors: reduced
[1]; low dose of 0.0375 mg, i.v. twice per week for 3 weeks from week 11
  incidence of invasive cancer: reduced
[1]; low dose of PVHA
  tumor burden: reduce tumor burden substantially
